Reference: patent US20070026431A1, “Modulation of MAPK-mediated phosphorylation and/or FBXW8-mediated ubiquitinylation of cyclin D1 in modulation of cellular proliferation” (priority 2005, published 2007)
Like-named read-outs stand apart in the source and are kept apart here. Peptide text beside a SMILES is read from it. * marks the point of attachment. Cbz = O=C(OCc1ccccc1)*

How the values were obtained:
MAPK (ERK1/2) = test: Western blot after 4-HT treatment, ΔB-Raf:ER^TAM NIH 3T3 cells; format: cell-based, mouse; conditions: 10 nM 4-HT
Method: (§1) Panel B: Western blot analysis. […] Panel C: Western blot analysis after 4-HT treatment. […] A half-life of cyclin D1 protein was calculated.
(§2) In order to investigate whether this was due to accelerated turnover of the cyclin D1 protein, the half-life of endogenous expression of cyclin D1 protein (FIG. 8, Panel E) was assessed.

cyclin D1 protein [1] = test: Cyclin D1 expression and half-life after 4-HT in ΔB-Raf:ER^TAM NIH 3T3 cells; format: cell-based, mouse
Method: as §1, §2

[2] = system: polyubiquitinated cyclin D1; test: Polyubiquitination of cyclin D1, IP-immunoblot in HA-ubiquitin transfected S phase HCT 116 cells; format: cell-based, human
Method: FIG. 3 illustrates that cyclin D1 is destabilized during S phase through the ubiquitin-proteasome pathway in cancers. Panels A and B: Pulse-chase analysis of cyclin D1 protein in NIH 3T3 (Panel A) and HCT 116 (Panel B) cells. When most of the populations were in G1 phase (9 hrs for NIH3T3 and 6 hrs for HCT 116) or in S phase (21 hrs for NIH3T3 and 15 hrs for HCT 116), cells were released from quiescence and then labeled with 35^S-methionine for 1 hour. Subsequently these cells were chased with cold methionine for the indicated times and then lysed. Cyclin D1 was immunoprecipitated and then analyzed with SDS-PAGE. Autoradiography was performed. Levels of metabolically labeled-cyclin D1 were estimated by quantitative scanning using the Quantity One (Bio-Rad) software and blotted on the graph to determine the half-life of cyclin D1. Panel C: illustrates that the turnover of cyclin D1 protein is mediated by the ubiquitin-proteasome pathway. […]
To confirm that the destabilization of cyclin D1 in the S phase is related to polyubiquitination, HCT 116 colon cancer cells were transfected with (lanes 1-3) or without (lane 4) HA-tagged ubiquitin cDNA and then synchronized to the S phase (FIG. 3, Panel D). […] A group of slower migrating bands was detected by the HA antibody exclusively in the anti-cyclin D1 immunoprecipitates in the presence of ubiquitin (lane 2 and 3). […]

GSK3α/β = test: Phosphorylation-specific blot for GSK3α/β, SW480 cells; format: cell-based, human; conditions: 24 hours of treatment
[3] = system: cyclin D1 protein (Thr286 phosphorylation); test: Western blot of cyclin D1 and p-Thr286 cyclin D1 in HA-CD1 SW480 cells treated with kinase inhibitors; format: cell-based, human
Method: Immunoblot analysis was performed. […] Asterisks indicate endogenous cyclin D1 expression. Panel B: Western blot analysis with fractionated nuclear proteins. […] Cell-cycle distribution was shown as bar graphs. Nuclear proteins were fractionated at indicated time points. […] Levels of total and phosphorylated cyclin D1 were determined.
(§3) Immunoblotting Analysis. […] SDS-PAGE was described previously (Tetsu and McCormick, 2003).
To identify the kinase responsible for cyclin D1 Thr286 phosphorylation, small molecule inhibitors of GSK3β, CDK4, and MEK were used to determine whether they were able to alter the phosphorylation and stability of ectopically expressed WT cyclin D1 protein in cultured cells (FIG. 5, Panels C and D). Ectopically expressed WT cyclin D1 protein was used to assess the stability of cyclin D1 protein. The endogenous expression was not assessed because transcription of cyclin D1 is regulated by the Ras/MAPK signaling. Therefore, endogenous expression of cyclin D1 is unable to be detected following inhibition of MAPK activities through the MEK/MAPK inhibitors or serum starvation (Tetsu et al., 2003. Cancer Cell. 3, 233-45).

cyclin D1 protein [4] = test: Western blot of cyclin D1 with or without MG132 during cell cycle progression, HCT 116 cells; format: cell-based, human; conditions: MG132 2 hours
Method: (§4) FIG. 3 illustrates that cyclin D1 is destabilized during S phase through the ubiquitin-proteasome pathway in cancers. Panels A and B: Pulse-chase analysis of cyclin D1 protein in NIH 3T3 (Panel A) and HCT 116 (Panel B) cells. When most of the populations were in G1 phase (9 hrs for NIH3T3 and 6 hrs for HCT 116) or in S phase (21 hrs for NIH3T3 and 15 hrs for HCT 116), cells were released from quiescence and then labeled with 35^S-methionine for 1 hour. Subsequently these cells were chased with cold methionine for the indicated times and then lysed. Cyclin D1 was immunoprecipitated and then analyzed with SDS-PAGE. Autoradiography was performed. Levels of metabolically labeled-cyclin D1 were estimated by quantitative scanning using the Quantity One (Bio-Rad) software and blotted on the graph to determine the half-life of cyclin D1. Panel C: illustrates that the turnover of cyclin D1 protein is mediated by the ubiquitin-proteasome pathway. […] Western blot was performed with cyclin D1 and p-actin antibodies. Panel D: Polyubiquitination of cyclin D1 protein. HCT 116 colon cancer cells were transfected with (lane 1-3) or without (lane 4) ubiquitin cDNA and then synchronized to S phase through the sequential manipulation of serum starvation and stimulation. Cells were treated with (lane 3 and 4) or without (lane 1 and 2) 25 μM MG132 for an hour. […]

cyclin D1 protein [5] = test: Western blot of cyclin D1 with or without MG132 during cell cycle progression, NIH 3T3 cells; format: cell-based, mouse
Method: HCT 116 and NIH 3T3 cells were treated with the proteasome inhibitor MG132 at each time point during cell cycle progression (FIG. 3, Panel C).

cyclin D1 protein [6] = test: Western blot of cyclin D1 with or without MG132 during cell cycle progression, WI-38 cells; format: cell-based, human; conditions: MG132 2 hours
Method: as §4

[7] = system: cyclin D1 protein (Thr286 phosphorylation); test: Western blot of total cyclin D1 and pThr286 in HCT 116 cells after U0126 or GSK3 inhibitor; format: cell-based, human
Method: (§5) FIG. 11 illustrates that ERK/MAPK is identified as the major kinase that is responsible for the stability of cyclin D1 protein. Panels A-F: Pulse-chase analysis of cyclin D1 protein in HCT 116 cells after exposure to the MEK inhibitor U0126 (A-C) or the GSK3 inhibitor BIO (D-F). Exponentially growing HCT 116 cells were treated with either DMSO or 10 μM of U0126 (A-C) for 30 minutes, or DMSO or 5 μM of BIO (D-F) for 24 hours. Panels A and D: Cells were pulse-labeled with ^35S-methionine for 1 hour. Subsequently these cells were chased with cold methionine for the indicated times, and then lysed respectively. Cyclin D1 was immunoprecipitated and then analyzed with SDS-PAGE. Autoradiography was performed. Levels of metabolically labeled-cyclin D1 were estimated by quantitative scanning using the Quantity One (Bio-Rad) software and blotted on the graph to determine the half-life of cyclin D1. Panels B and E: Western blot analysis. The membrane was blotted with a cyclin D1 Thr286 phosphorylation specific (pThr286), total cyclin D1, a phosphorylation specific ERK, and total ERK antibodies (B), or a pThr286, cyclin D1, a GSKα/β phosphorylation specific, and GSK3β antibodies (E). Panels C and F: Cell cycle distributions were shown. Panel G: Western blot analysis following transfection of various forms of HA-tagged cyclin D1 expression vectors in both NIH 3T3 mouse fibroblast (left) and HCT 116 colon cancer (right) cells. In lane 5 and 10, cells were treated with 5 μM of BIO for further 24 hours following transfection of the ΔD CD1 mutant.
as §3
To determine the contribution of ERK/MAPK to the stability of cyclin D1 in cancer cells, MAPK activity was inhibited with the MEK inhibitor U0126 (Favata et al., 1998. J Bio Chem. 273, 18623-32; Davies et al., 2000. Biochem J. 351, 95-105). Exponentially growing HCT 116 colon cancer cells were treated with U0126 for 30 minutes (FIG. 11, Panels A-C).
In contrast, no effect on phosphorylation status and stability of cyclin D1 protein through inhibition of GSK3α/β ([…], Panels D-F) were detected. […] Cycling HCT 116 colon cancer cells were treated with BIO for 24 hours (FIG. 11, Panels D-F). A phosphorylation specific antibody to GSK3α and β was used to measure their endogenous activities because phosphorylations of GSK3α at Tyr279 and GSK3β at Tyr216 are intramolecular autophosphorylation events in the cells. Thus, phosphorylation status reflects their kinase activities (Cole et al., 2004. Biochem J. 377, 249-55).

MEK/MAPK [8] = system: MEK/MAPK
Method: Immunoblot analysis was performed. […] Panels C and D: HA-WT CD1 (D) or Panel E: HA-CD1 T286A ectopically expressing SW480 cells were treated with highly specific small molecule inhibitors for GSK3β CDK4 and MEK. LiCl and BIO, AG12275, and U0126 were used for GSK, CDK4 and MEK/MAPK inhibitions respectively. Twenty-four hours after the treatment, cells were harvested and western-blot analyses were performed with a cyclin D1 and the p-Thr286 cyclin D1 antibodies. The phosphorylated cyclin D1 expression was magnified and normalized to its total (phosphorylated plus non-phosphorylated protein) expression and shown in the graphs in Panel C. Inhibition of the kinase activities by drugs was assessed using phosphorylation-specific antibodies for GSK3α/β, Rb and ERK1/2 on the same membrane respectively. […] HA-WT CD1 SW480 cells were treated with combining U0126 with LiCl.
After 24 hours of treatment with these highly specific small molecule inhibitors, expression levels of cyclin D1 and its phosphorylated form were analyzed (FIG. 5, Panel C). Levels of phosphorylated cyclin D1 were estimated by quantitative scanning with Quantity One (Bio Rad) software and were normalized to levels of total cyclin D1 protein (FIG. 5, Panel C bottom graphs).
Cells were next treated with the MEK inhibitor U0126.

MEK/MAPK [9] = test: Western blot of phosphorylated ERK (pERK) in HCT 116 cells; format: cell-based, human
Method: as §5, with “Panel G: Western blot analysis following transfection of various forms of HA-tagged cyclin D1 expression vectors in both NIH 3T3 mouse fibroblast (left) and HCT 116 colon cancer (right) cells. In lane 5 and 10, cells were treated with 5 μM of BIO for further 24 hours following transfection of the ΔD CD1 mutant.” left out

[10] = system: cyclin D1 / E3 ligase FBXW8; conditions: HCT 116 transfected with FBXW8, cyclin D1 and CDK4; 10 μM U0126 30 minutes
Method: Panel D: Immunoprecipitated-immunoblotting analysis. […] Panels D and E: Exponentially growing HCT 116 colon cancer cells were transiently transfected with Flag epitope-tagged FBXW8 DNA plasmid together with HA-tagged cyclin D1 and CDK4 expression vectors. Twenty-four hours later cells were treated with DMSO (−) or 10 μM of U0126 (+) for 30 minutes and then harvested. Cell lysates were immunoprecipitated with either a Flag (FBXW8) antibody or a control IgG and immunoblotted with cyclin D1, pThr286, and Flag (FBXW8) antibodies (left panel). Western blot for input controls (lysate) were provided (right panel).
Immunoprecipitation and Immunoblotting Analysis. […] Following antibodies were used for immunoprecipitation; Flag (M2 Agarose-conjugated, Sigma), cyclin D1 (A-12, Agarose-conjugated, Santa Cruz), CDK4 (H-303 or C-22 Agarose-conjugated, Santa Cruz), CDK6 (C-21, Santa Cruz), FLA (M2 Agarose-conjugated, Sigma), and HA (Y-11 Agarose-conjugated, Santa Cruz). Immunoblotting was performed using antibodies described above.
FBXW8 DNA plasmid together with cyclin D1 and CDK4 expression vectors were transiently transfected in exponentially growing HCT 116 colon cancer cells. After 24 hours, cells were treated with U0126 to inhibit MEK/MAPK signaling for 30 minutes. Subsequently cells were collected and an immunoprecipitated-immunoblotting analysis was performed (FIG. 12, Panels D and E).

[11] = system: HCT 116 colon cancer cells; test: Flow-cytometric cell cycle analysis, HCT 116 cells; format: cell-based, human; conditions: U0126 30 minutes
Method: Cell cycle analysis was carried out as described previously (Tetsu et al. (1999) Nature 398: 422-6; Tetsu et al. (2003) Cancer Cell 3: 233-45.

cyclin D1 protein [12] = test: Pulse-chase analysis of cyclin D1 protein in HCT 116 cells; format: cell-based, human; conditions: exponentially growing HCT 116; 10 μM U0126 30 minutes
Method: FIG. 11 illustrates that ERK/MAPK is identified as the major kinase that is responsible for the stability of cyclin D1 protein. Panels A-F: Pulse-chase analysis of cyclin D1 protein in HCT 116 cells after exposure to the MEK inhibitor U0126 (A-C) or the GSK3 inhibitor BIO (D-F). Exponentially growing HCT 116 cells were treated with either DMSO or 10 μM of U0126 (A-C) for 30 minutes, or DMSO or 5 μM of BIO (D-F) for 24 hours. Panels A and D: Cells were pulse-labeled with ^35S-methionine for 1 hour. Subsequently these cells were chased with cold methionine for the indicated times, and then lysed respectively. Cyclin D1 was immunoprecipitated and then analyzed with SDS-PAGE. Autoradiography was performed. Levels of metabolically labeled-cyclin D1 were estimated by quantitative scanning using the Quantity One (Bio-Rad) software and blotted on the graph to determine the half-life of cyclin D1. […]
FIG. 18 illustrates that knockdown of FBXW8, or its partner CUL1 or CUL7 expression through siRNA stabilizes cyclin D1 expression in HCT 116 colon cancer cells. […] Cyclin D1 was immunoprecipitated and then analyzed with SDS-PAGE. Levels of metabolically labeled-cyclin D1 were estimated by quantitative scanning using the Quantity One software (Bio-Rad) and blotted on the graph to determine the half-life of cyclin D1 (D).
Pulse-Chase Analysis. […] Cyclin D1 was immunoprecipitated and then analyzed with SDS-PAGE. […]

cyclin D1 protein [13] = conditions: HA-WT cyclin D1 SW480 cells; U0126 24 hours, then CHX, chased 3 hours
Method: FIG. 8 illustrates that MAPK regulates stability and relocalization of cyclin D1 protein. Panels A and B: Half-life analysis of HA-CD1 WT after exposure to U0126. Panel A: Exponentially growing HA-WT cyclin D1 SW480 cells were exposed to U0126 for 24 hours and subsequently treated with CHX and chased for 3 hours. Cells were harvested at different times and protein blot was performed (upper panel). Cyclin D1 expression was quantified and the half-life was calculated respectively. Panel B: Western blot analysis.
Immunoblotting Analysis. […] NE-PER nuclear and cytoplasmic extraction reagents (Pierce) were used for nuclear and cytoplasmic fractionation. […] Western blots were developed by enhanced chemiluminescence (Amersham or Upstate). […] Intensities of bands were quantified using Gel Doc 600 and Quantity One software (BioRad).
Exponentially growing HA-WT cyclin D1 SW480 cells were exposed to U0126 for 24 hours and subsequently treated with CHX and chased for 3 hours. […] Cyclin D1 expression was quantified and the half-life was calculated (FIG. 8, Panel A bottom graph).

[14] = HCT 116 transfected with FBXW8, cyclin D1 and CDK4, 10 μM U0126 30 minutes
[15] = exponentially growing HCT 116, U0126 30 minutes
[16] = HA-WT CD1 SW480 cells, U0126 24 hours

4-hydroxy-tamoxifen [4-HT]
MAPK activation (MAPK (ERK1/2)): MAPK activation
half-life of cyclin D1 protein (T1/2) (cyclin D1 protein [1]; exponentially growing cells, 10 nM 4-HT, then CHX, chased 3 hours): 20.6 min
cyclin D1 expression in S phase (cyclin D1 protein [1]; serum-stimulated from quiescence in the presence of 4-HT): dramatic reduction

CCC(=C/[C@H](C)C/C=C/C(C)=C/[C@@H](C)C(=O)[C@@H](C)[C@H](O)[C@@H](C)C/C(C)=C/C(=O)O)/C=C/[C@@H]1OC(=O)C=C[C@@H]1C [Leptomycin B]
polyubiquitinated cyclin D1 bands in the nucleus ([2]; LMB 3 hours, then MG132 for an hour, nuclear fraction): did not enhance these bands significantly

[Cl-].[Li+] [LiCl]
phosphorylated forms of GSK3α/β (GSK3α/β): disappeared
total cyclin D1 expression and its phosphorylated protein ([3]; HA-WT CD1 SW480 cells, 24 hours of treatment): no significant difference
effect of adding LiCl to U0126 on cyclin D1 ([3]; HA-WT cyclin D1 SW480 cells, U0126 combined with LiCl): little enhancement

CC(C)C[C@@H](C=O)NC(=O)[C@H](CC(C)C)NC(=O)[C@H](CC(C)C)NC(=O)OCc1ccccc1 [MG132] (Cbz-Leu-Leu-Leu-aldehyde)
reduced mobility (polyubiquitinated cyclin D1) bands ([2]; 25 μM MG132 for an hour): enhanced further
cyclin D1 protein accumulation during G1 phase (cyclin D1 protein [4]): no significant accumulation
cyclin D1 protein accumulation in S phase (cyclin D1 protein [4]): accumulated significantly
cyclin D1 protein accumulation, G1 versus S phase (cyclin D1 protein [5]): no difference between the G1 and S phase
cyclin D1 protein accumulation, G1 versus S phase (cyclin D1 protein [6]): no remarkable different

N#CC(=C(/N)Sc1ccccc1N)/C(C#N)=C(\N)Sc1ccccc1N [U0126]
phosphorylation status of cyclin D1 at Thr286 (pThr286) [7, 14]: significantly inhibited
level of total cyclin D1 [7, 15]: not changed
phosphorylation of cyclin D1 at Thr286 (pThr286) [7, 15]: dramatic reduction
MAPK activity (MEK/MAPK [8]; HA-WT cyclin D1 SW480 cells, U0126 24 hours (FIG. 8 Panel B)): completely inhibited
phosphorylated ERK (MEK/MAPK [8]; SW480 cells, 24 hours after exposure): disappeared
ectopic expression of cyclin D1 T286A protein ([3]; HA-CD1 T286A SW480 cells, U0126): did not accumulate
cyclin D1 expression (ectopic HA-WT) [3, 16]: dramatic induction
ratio of phosphorylated cyclin D1 at Thr286 to total cyclin D1 [3, 16]: significant reduction
MAPK activities (pERK) (MEK/MAPK [9]; [14]): significantly inhibited
phosphorylated form of ERK (pERK) (MEK/MAPK [9]; [15]): significantly depleted
association of cyclin D1 with the E3 ligase FBXW8 [10]: significant decrease
cell cycle profile [11]: without affecting
half-life of cyclin D1 protein (cyclin D1 protein [12]): 54.6 min
half-life of cyclin D1 protein (T1/2) (cyclin D1 protein [13]): 60.3 min
